# Test results from patent US20100204258A1, “METHODS AND COMPOSITIONS FOR MODULATING INSULIN SECRETION AND GLUCOSE METABOLISM” (The Trustees of Columbia University in the City of New York, priority 2007, published 2010).
# Columns and labels:
# [1] = system: dopamine content of brain and pancreas tissue; assay: Dopamine content of brain and pancreas extracts by ELISA after i.v. TBZ; type: in vivo, rat
# Protocol: Dopamine measurements. Anaesthetized rats received an intravenous injection of TBZ and were sacrificed one hour later. Euthanasia was performed by exsanguination of the anesthetized animal. Brain and pancreas were harvested as quickly as possible and frozen at −80° C. until use. Frozen tissue was pulverized in a liquid nitrogen cooled mortar and extracted in 0.01 N HCl. The tissue extract was centrifuged at 10,000×g at 4° C. to remove debris and the total protein was estimated by reading the absorbance at 280 nm. The concentration of dopamine in the extract was estimated using an ELISA kit from Rocky Mountain Diagnostics (Colorado Springs, Colo.) per the manufacturer's instructions and normalized to the extract protein concentration.
# [2] = system: Lewis rats; assay: IPGTT after 2 mg/kg i.v. of VMAT2 ligands (FIG. 10); type: in vivo, rat; conditions: 2 mg/kg body weight i.v.; for blood glucose excursion during IPGTT: vs vehicle (DMSO)
# Protocol: Experimental animals. All animal studies were conducted as described in Example 1.
# Anaesthetized rats were administered TBZ, THB, butamol, reserpine, emetine, or Compound 6 at a dose of approximately 2-3 mg/kg body weight by intravenous (i.v.) injection using the penile vein. TBZ, THB, butamol, reserpine, emetine, and Compound 6 were each separately dissolved in neat sterile dimethylsulfoxide (DMSO) and diluted (always more than 10 fold) in sterile saline. Rats received injections of vehicle alone (10% DMSO in saline) or reserpine (in saline). Animals recovered fully before receiving IPGTT.
# Blood glucose, insulin, glucagon and intraperitoneal glucose tolerance tests measurements. Blood samples were collected from a superficial blood vessel in the tails of the rats following 6 hours of fasting between 12:00 noon and 2:00 p.m. The fasting blood glucose (BG) levels of the rats were measured using an Accu-Check blood glucose monitoring system (Roche Diagnostics, Sommerville, N.J.). Intraperitoneal glucose tolerance tests (IPGTT) were performed in 6 hour fasting un-anaesthetized animals. Briefly, after baseline BG measurements, animals received an intraperitoneal (i.p.) injection of 1 gram glucose/kilogram body weight. To minimize stress during the procedure, rats were handled by the same operator during acclimatization and later during weighing and IPGTT. Blood samples (approximately 30 μl) were collected at baseline and then again 15, 30, 45, 60, 90, and 120 minutes following i.p. glucose. BG concentrations were measured immediately on these samples and the remainder processed.
# [3] = 1.6 μg/gm body weight i.v., one hour later (FIG. 3)
# [4] = one hour after injection of 10 μg/gm body weight
smiles,measurement,setting,value
"COc1cc2c(cc1OC)C1CC(=O)C(CC(C)C)CN1CC2 (centres unmarked) [TBZ, tetrabenazine]",dopamine content of brain tissue,[1]; [3],reduces the dopamine content
same,dopamine content of pancreas tissue,[1]; [3],reduces the dopamine content
same,dopamine content of brain,[1]; [4],significantly depleted
same,dopamine content of pancreas,[1]; [4],significantly depleted
same,blood glucose levels during IPGTT,[2]; around sixty minutes following glucose challenge,returned to control or near normal levels
same,area under the curve in the IPGTT,[2]; following glucose challenge,smaller area under the curve
same,blood glucose excursion during IPGTT,[2],reduce the blood glucose excursion
same,blood glucose excursion during IPGTT,[2]; listed as Tetrabenazine,reduced the blood glucose excursion
